Source: ChEMBL document CHEMBL1145614, “Antagonists of the human adenosine A2A receptor. Part 3: Design and synthesis of pyrazolo[3,4-d]pyrimidines, pyrrolo[2,3-d]pyrimidines and 6-arylpurines” (Bioorg Med Chem Lett, 2008)
Activity calls are given as the source filed them.

How the values were obtained:
[1] = tested on: Mus musculus; assay: Reversal of haloperidol-induced hypolocomotion in mouse at 30 mg/kg, ip; assay type: functional, organism-based; design: dose 30 mg/kg
[2] = target: Adenosine receptor A2a (Homo sapiens, UniProt P29274)
Description: Binding affinity at human adenosine A2A receptor

[3] = tested on: Mus musculus; assay: Reversal of haloperidol-induced hypolocomotion in ip dosed mouse; assay type: functional; conditions: read-out: MED
[4] = tested on: Mus musculus; assay: Reversal of haloperidol-induced hypolocomotion in mouse at 30 mg/kg, po; assay type: functional, organism-based; design: dose 30 mg/kg
[5] = tested on: Mus musculus; assay: Reversal of haloperidol-induced hypolocomotion in po dosed mouse; assay type: functional; conditions: read-out: MED
[6] = tested on: Mus musculus; assay: Reversal of haloperidol-induced hypolocomotion in mouse at 10 mg/kg, ip; assay type: functional, organism-based; design: dose 10 mg/kg
[7] = tested on: Mus musculus; assay: Reversal of haloperidol-induced hypolocomotion in mouse at 1 mg/kg, po; assay type: functional, organism-based; design: dose 1 mg/kg
[8] = tested on: Mus musculus; assay: Reversal of haloperidol-induced hypolocomotion in mouse at 10 mg/kg, po; assay type: functional, organism-based; design: dose 10 mg/kg

Sequence of Adenosine receptor A2a (P29274 whole entry): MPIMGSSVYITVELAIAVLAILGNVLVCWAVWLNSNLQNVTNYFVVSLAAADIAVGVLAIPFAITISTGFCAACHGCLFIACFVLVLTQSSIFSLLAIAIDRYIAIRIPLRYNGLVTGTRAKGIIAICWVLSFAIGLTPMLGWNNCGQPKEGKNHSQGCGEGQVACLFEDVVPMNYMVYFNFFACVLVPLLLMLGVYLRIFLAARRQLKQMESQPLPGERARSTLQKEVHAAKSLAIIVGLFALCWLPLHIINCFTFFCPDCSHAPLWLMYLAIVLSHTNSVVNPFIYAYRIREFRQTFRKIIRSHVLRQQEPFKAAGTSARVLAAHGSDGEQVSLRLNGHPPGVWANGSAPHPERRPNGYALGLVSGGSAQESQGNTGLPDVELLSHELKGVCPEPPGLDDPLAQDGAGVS

Ki [2] [nM] | Compound | Activity [1] | other results
48 | Nc1nc(-c2ccco2)c2cn[nH]c2n1 | Active | –
– | Nc1nc(-c2ccccn2)c2cnn(Cc3ccccc3F)c2n1 | Active | –
372 | Nc1nc(-c2ccco2)c2ncn(Cc3ccc([N+](=O)[O-])cc3)c2n1 | – | –
8 | Nc1nc(-c2ccco2)c2ncn(Cc3cccc(Cl)c3)c2n1 | inactive | –
26 | Nc1nc(-c2ccco2)c2cnn(Cc3ccccc3[N+](=O)[O-])c2n1 | inactive | –
– | COc1cccc(Cn2cnc3c(-c4ccco4)nc(N)nc32)c1 | Active | –
1320 | Nc1nc(-c2ccco2)c2cnn(Cc3cccc(C(=O)O)c3)c2n1 | inactive | –
4 | COC(=O)c1cccc(Cn2ncc3c(-c4ccco4)nc(N)nc32)c1 | Active | –
56 | Nc1nc(-c2cncs2)c2ncn(C(=O)NCc3ccccc3)c2n1 | Active | –
6 | Cc1cccc(Cn2cnc3c(-c4ccco4)nc(N)nc32)c1 | Active | –
– | Cc1ccc(CNC(=O)n2cnc3c(-c4ccco4)nc(N)nc32)cc1 | Active | –
– | Nc1nc(-c2ccco2)c2ncn(Cc3ccc(C(F)(F)F)cc3)c2n1 | Active | –
3 | Nc1nc(-c2ccco2)c2cnn(Cc3ccccc3)c2n1 | Active | –
– | Nc1nc(-c2ccco2)c2cnn(Cc3cccc(Cl)c3)c2n1 | Active | –
36 | Nc1nc(-c2ccco2)c2cnn(Cc3ccco3)c2n1 | Active | –
45 | Nc1nc(-c2ccco2)c2cnn(CC3CCCCC3)c2n1 | Active | –
4100 | Nc1nc(-c2ccco2)c2ncn(Cc3cccc(C(=O)O)c3)c2n1 | – | –
– | Nc1nc(-c2ccco2)c2cnn(Cc3ccc(C(F)(F)F)cc3)c2n1 | inactive | –
– | Nc1nc(-c2ccco2)c2ncn(Cc3ccccc3)c2n1 | Active | –
28 | Nc1nc(-c2ccco2)c2cnn(Cc3cccnc3)c2n1 | Active | –

Ki [2] [nM] | Compound | Activity [1] | other results
– | Nc1nc(-c2ccco2)c2ncn(C(=O)NCc3ccccc3Cl)c2n1 | Active | –
5 | Nc1nc(-c2ccco2)c2ncn(Cc3ccccc3F)c2n1 | Active | –
– | Cc1cccc(CNC(=O)n2cnc3c(-c4ccco4)nc(N)nc32)c1 | Active | minimal effective dose [3]: 1 mg/kg; Activity [4]: Active; minimal effective dose [5]: 30 mg/kg
1 | Nc1nc(-c2ccco2)c2cnn(C(=O)NCc3ccccc3)c2n1 | Active | –
261 | Nc1nc(-c2ccco2)c2nc[nH]c2n1 | Active | minimal effective dose [3]: 10 mg/kg; Activity [4]: inactive; Activity [6]: Active; minimal effective dose [5]: 1 mg/kg; Activity [7]: Active
2090 | Nc1nc(-c2ncc[nH]2)c2cnn(Cc3ccccc3F)c2n1 | – | –
85 | Nc1nc(-c2ccco2)c2ncn(Cc3cccc([N+](=O)[O-])c3)c2n1 | inactive | –
119 | Nc1nc(-c2ccco2)c2cnn(Cc3ccc([N+](=O)[O-])cc3)c2n1 | inactive | –
3 | Cc1cccc(Cn2ncc3c(-c4ccco4)nc(N)nc32)c1 | Active | –
23 | Nc1cccc(Cn2cnc3c(-c4ccco4)nc(N)nc32)c1 | Active | minimal effective dose [3]: 10 mg/kg; Activity [4]: Active; minimal effective dose [5]: 30 mg/kg
– | Nc1cccc(Cn2ncc3c(-c4ccco4)nc(N)nc32)c1 | Active | –
23 | CN(C)c1nc(-c2ccco2)c2ncn(C(=O)NCc3ccccc3)c2n1 | inactive | –
45 | COC(=O)c1cccc(Cn2cnc3c(-c4ccco4)nc(N)nc32)c1 | inactive | –
242 | Nc1nc(-c2ccco2)c2cc[nH]c2n1 | Active | –
– | Nc1nc(-c2ccco2)c2cnn(Cc3c(F)cccc3F)c2n1 | Active | –
13 | CSc1nc(-c2ccco2)c2ncn(C(=O)NCc3ccccc3)c2n1 | inactive | –
779 | CS(=O)(=O)c1ccc(Cn2cnc3c(-c4ccco4)nc(N)nc32)cc1 | – | –
– | COc1cccc(Cn2ncc3c(-c4ccco4)nc(N)nc32)c1 | Active | –
– | Nc1nc(-c2cc[nH]n2)c2cnn(Cc3ccccc3F)c2n1 | Active | –
– | Nc1nc(-c2ccco2)c2cnn(Cc3ccccc3N)c2n1 | Active | –

Ki [2] [nM] | Compound | Activity [1] | other results
– | Nc1nc(-c2ccco2)c2ncn(Cc3c(F)cccc3F)c2n1 | Active | –
340 | CS(=O)(=O)c1ccc(Cn2ncc3c(-c4ccco4)nc(N)nc32)cc1 | inactive | –
71 | Nc1nc(-n2ccnn2)c2cnn(Cc3ccccc3F)c2n1 | Active | –
– | Nc1nc(-c2ccco2)c2ncn(C(=O)NCc3ccc(F)cc3)c2n1 | Active | –
– | Nc1nc(-c2ccco2)c2ncn(C(=O)NCc3ccccc3)c2n1 | Active | –
110 | Nc1nc(-c2ccco2)c2cnn(CCc3ccccc3)c2n1 | inactive | –
– | Nc1nc(-c2ccco2)c2cnn(Cc3ccccc3Cl)c2n1 | inactive | –
– | Nc1nc(-c2ccco2)c2ncn(C(=O)NCc3ccco3)c2n1 | Active | minimal effective dose [3]: < 30 mg/kg; Activity [4]: Active; Activity [8]: Active; minimal effective dose [5]: 10 mg/kg
– | Nc1nc(-c2ccco2)c2ncn(C(=O)NCc3cccs3)c2n1 | Active | minimal effective dose [3]: < 30 mg/kg; Activity [4]: Active; minimal effective dose [5]: 30 mg/kg
1890 | CN(C)c1nc(-c2ccco2)c2cnn(CCc3ccccc3)c2n1 | – | –
1620 | Cn1ccnc1-c1nc(N)nc2c1cnn2Cc1ccccc1F | inactive | –
206 | Nc1nc(-c2ccco2)c2ncn(C(=O)Nc3ccccc3)c2n1 | Active | –
26 | C[C@@H](NC(=O)n1cnc2c(-c3ccco3)nc(N)nc21)c1ccccc1 | inactive | –
– | Nc1nc(-c2ccco2)c2cnn(Cc3cccc([N+](=O)[O-])c3)c2n1 | Active | –
– | Nc1nc(-c2ccco2)c2ncn(C(=O)NCCc3ccccc3)c2n1 | Active | –
4 | Nc1nc(-c2ccco2)c2cnn(Cc3ccccc3F)c2n1 | Active | –
135 | OCCNc1nc(-c2ccco2)c2cnn(CCc3ccccc3)c2n1 | inactive | –
102 | Cc1nc(-c2ccco2)c2ncn(C(=O)NCc3ccccc3)c2n1 | – | –
– | C[C@H](NC(=O)n1cnc2c(-c3ccco3)nc(N)nc21)c1ccccc1 | Active | –

Compound | Ki [2] [nM] | Activity [1] | other results
Nc1nc(-c2ccccc2)c2ncn(C(=O)NCc3ccccc3)c2n1 | 17 | Active | –
Nc1nc(-c2cccs2)c2cnn(Cc3ccccc3F)c2n1 | 9 | – | –
Nc1nc(-c2cccs2)c2ncn(C(=O)NCc3ccccc3)c2n1 | 13 | inactive | –
Nc1nc(-c2nccs2)c2cnn(Cc3ccccc3F)c2n1 | 17 | inactive | –
Nc1nc(-c2ccco2)c2cnn(CCCc3ccccc3)c2n1 | 4 | Active | –
